Activity calls are given as the source filed them.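 The calls were made as follows: active = STAT1 reporter activators whose half-maximal activating concentration EC50 is 10 µM or lower; inactive = EC50 above 10 µM or no activation.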
System: NIH 3T3 STAT1 luciferase reporter, luminescence
Assay: STAT1 transcription enhancement, IFN-gamma induced – cell-based, NIH 3T3, luciferase luminescence, counter-screen for STAT3 activator project, dose response (AID 1406)
[1] = cells stimulated with IFN-gamma at EC80

For `Cc1c(C(=O)NCc2cccnc2)oc2ccc(S(=O)(=O)N3CC(C)CC(C)C3)cc12` (centres undefined), the EC50 [1] was > 55.7 µM (inactive).

`CN(C)C(=O)COC(=O)/C=C/c1ccccc1[N+](=O)[O-]` was tested, and the EC50 [1] was > 55.7 µM (inactive).

With `O=c1c2ccccc2ncn1Cc1ccco1` the EC50 [1] was > 55.7 µM (inactive).

In the case of `O=C(Cc1cnc2ncnn2c1)N1CCc2c([nH]c3ccccc23)C1c1ccccc1F` (centres undefined), the EC50 [1] was > 55.7 µM (inactive).

With `c1ccc2c(c1)CCCN2c1nc2ccccc2n2cnnc12` the EC50 [1] was > 55.7 µM (inactive).

`CCCNC(=O)Cn1c2ccccc2c2nc(=O)cc(C)n21` was tested, and the EC50 [1] was > 55.7 µM (inactive).

With `COc1ccc(Cl)cc1NC(=O)Nc1ccc(Br)cn1` the EC50 [1] was > 55.7 µM (inactive).

For `CN(C)C(CN1C(=O)C2CC=CCC2C1=O)c1cn(C)c2ccccc12` (centres undefined), the EC50 [1] was > 55.7 µM (inactive).

With `Cc1ccccc1C1c2[nH]c3ccccc3c2CCN1C(=O)c1ccc(=O)n(C)n1` (centres undefined) the EC50 [1] was > 55.7 µM (inactive).

In the case of `O=C(c1cccnc1)N1CCc2ccccc21`, the EC50 [1] was > 55.7 µM (inactive).

With `CCOC(=O)C1(CC2CCCCO2)CCN(Cc2cc3ccccc3[nH]2)CC1` (centres undefined) the EC50 [1] was > 55.7 µM (inactive).

With `CCOc1ccccc1-c1n[nH]c(=S)o1` the EC50 [1] was > 55.7 µM (inactive).

For `CCn1c(C(=O)Nc2ccsc2C(=O)OC)cc2sc(Cl)cc21`, the EC50 [1] was > 55.7 µM (inactive).

`N#Cc1cn(CC(=O)O)c2ccccc12` was tested, and the EC50 [1] was > 55.7 µM (inactive).

With `CC(OC(=O)c1cccnc1SCc1cc(=O)n2ccccc2n1)c1ccccn1` (centres undefined) the EC50 [1] was > 55.7 µM (inactive).

`COc1ccc(NC(=O)N2CCn3c2nc2ccccc23)cc1` was tested, and the EC50 [1] was > 55.7 µM (inactive).

With `Cc1cccc(NC(=O)c2cc([N+](=O)[O-])ccc2Cl)c1O` the EC50 [1] was > 55.7 µM (inactive).

`O=C(CCCSc1nc2ccccc2s1)NCc1ccco1` was tested, and the EC50 [1] was > 55.7 µM (inactive).

For `CN1CCN(CCCNC(=O)c2cc3c(-c4ccc(Cl)cc4)nn(C)c3s2)CC1`, the EC50 [1] was > 55.7 µM (inactive).

For `Cc1ccc(CC(=O)Nc2nc3c(s2)CCCC3)cc1`, the EC50 [1] was > 55.7 µM (inactive).

For `CC(C)CC(=O)NC(=S)Nc1nc(-c2ccccc2)cs1`, the EC50 [1] was > 55.7 µM (inactive).

For `Nc1nc(-c2ccc(Cl)cc2)nn1C(=O)c1cccs1`, the EC50 [1] was > 55.7 µM (inactive).

For `CN1CCN(C(=O)CNc2ccc(C(F)(F)F)cc2[N+](=O)[O-])CC1`, the EC50 [1] was > 55.7 µM (inactive).

In the case of `COC(=O)C(NC=O)C(O)(Cc1ccccc1)C(F)(F)F` (centres undefined), the EC50 [1] was > 55.7 µM (inactive).

`COc1ccccc1NC(=O)c1[nH]c(C)c(C(C)=O)c1C` was tested, and the EC50 [1] was > 55.7 µM (inactive).

For `COc1ccc(Cl)cc1-c1nc(-c2ccc(Br)o2)no1`, the EC50 [1] was > 55.7 µM (inactive).

For `COC(=O)c1n[nH]c2ccccc12`, the EC50 [1] was > 55.7 µM (inactive).

`COc1ccc(C)cc1NC(=O)c1[nH]c(C)c(C(C)=O)c1C` was tested, and the EC50 [1] was > 55.7 µM (inactive).

In the case of `CCOc1ccc(CN2CCN(Cc3cc4ccccc4[nH]3)CC2CCO)cc1` (centres undefined), the EC50 [1] was > 55.7 µM (inactive).

`CCCc1nnc(N2C(=O)c3cccc4cccc(c34)C2=O)s1` was tested, and the EC50 [1] was > 55.7 µM (inactive).

For `Cc1cc(C)n(-c2nnc3n2N=C(c2c[nH]c4ccccc24)CS3)n1`, the EC50 [1] was > 55.7 µM (inactive).

`Cc1[nH]n(-c2ccccc2)c(=O)c1/C=C1/C=c2ccccc2=N1` was tested, and the EC50 [1] was > 55.7 µM (inactive).

With `CCOC(=O)CC1C(=O)NCCN1C(=O)c1cc2c(=O)n3cccc(C)c3nc2s1` (centres undefined) the EC50 [1] was > 55.7 µM (inactive).

For `O=C(Nc1nnc(-c2ccccc2Cl)o1)c1nc2ccccc2s1`, the EC50 [1] was > 55.7 µM (inactive).

In the case of `CC1=NN(c2ccccc2)C(=O)/C1=C/c1c(O)[nH]c(=O)[nH]c1=O`, the EC50 was > 55.7 µM (inactive).

In the case of `CC(=O)Nc1c(Cl)n(C(C)=O)c2ccccc12`, the EC50 [1] was > 55.7 µM (inactive).

With `CCOc1ccccc1CN1CCN(Cc2cc3ccccc3[nH]2)CC1CCO` (centres undefined) the EC50 [1] was > 55.7 µM (inactive).

For `COc1ccccc1-c1nnc(SCC(=O)NC2CCCCC2)o1`, the EC50 [1] was > 55.7 µM (inactive).

In the case of `COc1ccccc1C(=O)NNC(=O)c1ccc(NC(=O)C(C)C)cc1`, the EC50 [1] was > 55.7 µM (inactive).

`COc1ccccc1C(=O)Nc1cc(Cl)ccc1O` was tested, and the EC50 [1] was > 55.7 µM (inactive).

In the case of `CC(=O)NCCC(=O)N1CCc2c([nH]c3ccccc23)C1c1cccc(Cl)c1` (centres undefined), the EC50 [1] was > 55.7 µM (inactive).

For `c1ccc2c(CNC3CCCCCC3)c[nH]c2c1`, the EC50 was > 55.7 µM (inactive).

In the case of `COc1ccccc1C(=O)NNC(=S)Nc1ccccc1`, the EC50 [1] was > 55.7 µM (inactive).

For `COc1ccc(-c2nnc(Nc3nc4c(OC)cccc4s3)o2)cc1`, the EC50 [1] was > 55.7 µM (inactive).

`Cc1noc(/C=C/N(C)C)c1S(=O)(=O)N1CCc2ccccc21` was tested, and the EC50 [1] was > 55.7 µM (inactive).

`Cn1nc(-c2ccc(Cl)cc2)c2cc(C(=O)NCC3CCCO3)sc21` (centres undefined) was tested, and the EC50 [1] was > 55.7 µM (inactive).

For `COCCNC(=O)C(=O)NNC(=O)c1ccccc1OC`, the EC50 [1] was > 55.7 µM (inactive).

With `Cc1nn(-c2ccc(Cl)cc2)c(N)c1C(O)(CSc1nccn1C)C(F)(F)F` (centres undefined) the EC50 [1] was > 55.7 µM (inactive).

In the case of `O=C(COc1ccccc1Cl)Nc1cc(Cl)ccc1O`, the EC50 [1] was > 55.7 µM (inactive).

With `O=C(CN1CCNCC1)Nc1ccc(Oc2ccccc2)cc1` the EC50 [1] was > 55.7 µM (inactive).

In the case of `CCc1cc2c(NCCC(=O)O)nc(C)nc2s1`, the EC50 [1] was > 55.7 µM (inactive).

For `CC(=O)NCCC(=O)N1CCc2c([nH]c3ccccc23)C1c1cccc(C)c1` (centres undefined), the EC50 [1] was > 55.7 µM (inactive).

`CC(=O)n1cc(Nc2ccc([N+](=O)[O-])cc2)c2ccccc21` was tested, and the EC50 [1] was > 55.7 µM (inactive).

For `CCCN(CCC)C(=O)Cn1c2ccccc2c2nc(=O)cc(C)n21`, the EC50 [1] was > 55.7 µM (inactive).

For `COCCCNc1nc2c(-c3cccc(C(F)(F)F)c3)nnn2c2ccccc12`, the EC50 [1] was > 55.7 µM (inactive).

In the case of `Cn1nc(-c2ccc(Cl)cc2)c2cc(C(=O)NCCCN3CCCC3)sc21`, the EC50 [1] was 21.6 µM (inactive).

With `COC(=O)c1sccc1NC(=O)c1cc2c(s1)CCCC2` the EC50 [1] was > 55.7 µM (inactive).

`Cc1cccc2c1NC(=O)/C2=C\C(=O)c1cccs1` was tested, and the EC50 [1] was > 55.7 µM (inactive).

For `NNc1ncnc2sc3c(c12)CCC3`, the EC50 [1] was > 55.7 µM (inactive).

`COc1cc(NC(=O)c2cc(-c3ccco3)on2)c(OC)cc1Cl` was tested, and the EC50 [1] was > 55.7 µM (inactive).

In the case of `O=C(C1CCCN(S(=O)(=O)c2cccc3cccnc23)C1)N1CCc2ccccc21` (centres undefined), the EC50 [1] was > 55.7 µM (inactive).

In the case of `CC1=C(C)C(=O)C(N2CCOCC2)=CC1=O`, the EC50 [1] was > 55.7 µM (inactive).

With `CCCSc1nnc(Sc2nnnn2-c2ccccc2)s1` the EC50 [1] was > 55.7 µM (inactive).

`CCOC(=O)c1sc(NCc2ccco2)c(-c2nc3ccccc3s2)c1N` was tested, and the EC50 [1] was > 55.7 µM (inactive).

In the case of `CCC(=O)NCCSc1c[nH]c2ccccc12`, the EC50 [1] was > 55.7 µM (inactive).

With `COc1cc(NC(=O)c2cc(C3CC3)on2)c(OC)cc1Cl` the EC50 [1] was > 55.7 µM (inactive).

`COc1ccc(C2c3[nH]c4ccccc4c3CCN2C(=O)c2cc3ncccn3n2)c(F)c1` (centres undefined) was tested, and the EC50 [1] was > 55.7 µM (inactive).

In the case of `CCOc1cc(-c2ccc(N)c(OCC)c2)ccc1N`, the EC50 [1] was > 55.7 µM (inactive).

In the case of `COCCSc1ccccc1C(=O)NCCc1ccccc1`, the EC50 [1] was > 55.7 µM (inactive).

With `O=C(O)C(Cc1c[nH]c2ccccc12)N1Cc2ccccc2C1=O` (centres undefined) the EC50 [1] was > 55.7 µM (inactive).

For `CC(=O)N1N=C(c2ccccc2O)OC1(C)CC(=O)Nc1ccccc1` (centres undefined), the EC50 [1] was > 55.7 µM (inactive).

`COc1ccc(Cl)cc1NC(=O)c1oc(C)nc1C` was tested, and the EC50 [1] was > 55.7 µM (inactive).

`CCN1CCN(C(=O)c2cc3c(-c4ccc(Cl)cc4)nn(C)c3s2)CC1` was tested, and the EC50 [1] was > 55.7 µM (inactive).

`CN1N=C(C(=O)N2CCc3c([nH]c4ccccc34)C2c2c(F)cccc2Cl)CCC1=O` (centres undefined) was tested, and the EC50 [1] was > 55.7 µM (inactive).

From PubChem BioAssay AID1406 (The Scripps Research Institute Molecular Screening Center, 2008)
